Values quoted from earlier work as cited in US20210299077A1, “LIPOSOMAL REDUCED GLUTATHIONE (LRG) IN COMBINATION WITH IVERMECTIN FOR THE TREATMENT OF COVID-19” (Your Energy Systems, LLC, priority 2020, published 2021).
Like-named read-outs stand apart in the source and are kept apart here.

Key:
[1] = single oral dose of 2000 mg
SARS-CoV [2] = details: in vitro studies
influenza viruses = details: 300 mg twice a day for 5 days
SARS-CoV [3] = details: mouse SARS-CoV model
COVID-19 = COVID-19 patients
[4] = patients receiving remdesivir

SMILES: CCN(CCO)CCCC(C)Nc1ccnc2cc(Cl)ccc12 (stereo not shown) [hydroxychloroquine]
- in-vitro activity against SARS-CoV-2 (SARS-CoV-2): relatively higher potency against SARS-CoV-2

SMILES: O=C(Nc1ccc([N+](=O)[O-])cc1Cl)c1cc(Cl)ccc1O [niclosamide]
- maximum serum concentration [1]: 0.25 to 6.0 µg/mL
- maximum serum concentration ([1]; same range in μM): 0.76 to 18.3 µM
- inhibition of SARS-CoV replication (SARS-CoV [2]): able to inhibit SARS-CoV replication at a micromolar concentration
- aqueous solubility: limited aqueous solubility

SMILES: CC(=O)Oc1ccccc1C(=O)Nc1ncc([N+](=O)[O-])s1 [NTZ, Nitazoxanide]
- symptoms and infectious viral load (influenza viruses): reduction of symptoms and infectious viral load
- tolerability (influenza viruses): well tolerated

SMILES: CCN(CC)CCCC(C)Nc1ccnc2cc(Cl)ccc12 (stereo not shown) [chloroquine]
- efficacy in inhibiting viral replication (SARS-CoV [3]): did not show efficacy
- clinical and virologic outcome versus a comparison group (COVID-19): clinical and virologic benefit

SMILES: CCC(CC)COC(=O)[C@H](C)N[P@](=O)(OC[C@H]1O[C@@](C#N)(c2ccc3c(N)ncnn23)[C@H](O)[C@@H]1O)Oc1ccccc1 [Remdesivir]
- adverse events [4]: nausea, vomiting, rectal bleeding, and elevated liver enzymes
